Experimental findings from US20250144067A1, “PERSONALIZED STARVATION THERAPY FOR CANCER” (Faeth Therapeutics, Inc., priority 2021, published 2025) are described below.

Counter-ions that a name gives are not always drawn. Like-named read-outs stand apart in the source and are kept apart here.

The test system of experiment [1] is NCI-H292 lung cancer cells. The experiment can be described thus: FDA drug screening, complete media vs cholesterol-free media without statin (TABLE 1). It is filed as cell-based, human.
In experiment [2] the test system is NCI-H292 lung cancer cells. Briefly: FDA drug screening, complete media vs cholesterol-free media with simvastatin (TABLE 2). It counts as cell-based, human.
The mark [3] stands for this setting: Complete minus Cholesterol-free, greater than 0 enhanced anti-cancer activity, about 0 neutral, below 0 antagonists.
Setting [4] is: NCI-H292 cells in cholesterol-free media without statin.
Setting [5] is: NCI-H292 cells in complete media.
[6] abbreviates: complete media vs cholesterol-free media + simvastatin (0.04 μM), >0 enhanced anti-cancer activity, about 0 neutral, <0 antagonist.
[7] abbreviates: NCI-H292 cells, FDA drug library screen, cholesterol-free media with simvastatin 0.04 μM.
Setting [8] is: NCI-H292 cells, FDA drug library screen, complete media.
The mark [9] stands for this setting: complete media minus cholesterol-free media + simvastatin, >0 enhanced anti-cancer activity, about 0 neutral, <0 antagonist.
[10] abbreviates: Complete minus Cholesterol-free, greater than 0 enhanced anti-cancer activity, about 0 neutral, below 0 antagonist.
[11] abbreviates: NCI-H292 cells, FDA drug library screen, cholesterol-free media without statin.
Setting [12] is: NCI-H292 cells, cholesterol-free media with simvastatin 0.04 μM, cell growth value in FDA drug screen.
The mark [13] stands for this setting: NCI-H292 cells, complete media, cell growth value in FDA drug screen.

`C#C[C@]1(OC(C)=O)CC[C@H]2[C@@H]3CCC4=C[C@@H](OC(C)=O)CC[C@@H]4[C@H]3CC[C@@]21C` [Ethynodiol diacetate]: the Difference in experiment [1] (setting [3]) is listed as −0.50; in experiment [2] (setting [6]), −0.33. This compound came in with a Cholesterol-free in experiment [1] (setting [4]) of 1.654. Moreover, the Complete in experiment [1] (setting [5]) stood at 1.155. The “Cholesterol-free media + simvastatin (0.04 μM)” value in experiment [2] (NCI-H292 cells, FDA library drug in cholesterol-free media with simvastatin 0.04 μM) is 1.26. The “Complete Media” value in experiment [2] (NCI-H292 cells, FDA library drug in complete media) is on record as 0.9323.
Turning to `C=CC(=O)N1CCC([C@@H]2CCNc3c(C(N)=O)c(-c4ccc(Oc5ccccc5)cc4)nn32)CC1` [Zanubrutinib], in experiment [1] (NCI-H292 cells, cholesterol-free media without statin), the Cholesterol-free was 0.7894. This compound showed a Complete in experiment [1] (NCI-H292 cells, complete media) of 0.3496. For the same compound, the Difference was −0.44 in experiment [1] (complete vs cholesterol-free media, greater than 0 enhanced anti-cancer activity, about 0 neutral, below 0 antagonists) and −0.02 in experiment [2] (complete media minus cholesterol-free media + simvastatin (0.04 μM), >0 enhanced anti-cancer activity, about 0 neutral, <0 antagonist). The “Cholesterol-free media + simvastatin (0.04 μM)” value in experiment [2] (NCI-H292 cells, cholesterol-free media with simvastatin 0.04 μM, FDA drug library screen (TABLE 2)) came to 0.7245. Further, the “Complete Media” value in experiment [2] (NCI-H292 cells, complete media, FDA drug library screen (TABLE 2)) was found to be 0.7031.
`CC(C)NNC(=O)c1ccncc1` [Iproniazid]: the Difference is recorded as −0.56 in experiment [1] (setting [3]) and 0.54 in experiment [2] (setting [9]). Besides, the Cholesterol-free in experiment [1] (setting [4]) worked out at 1.339. Besides, the Complete in experiment [1] (setting [5]) came out at 0.7813. For the same compound, in experiment [2] (setting [7]), the “Cholesterol-free media + simvastatin (0.04 μM)” value was found to be 1.211. The “Complete Media” value in experiment [2] (setting [8]) turned out to be 1.75.
Consider `CN1CC(O)C2=C/C(=N/NC(N)=O)C(=O)C=C21` (stereo not drawn) [Carbazochrome], for which the figures for the Difference in experiment [1] (setting [10]) and in experiment [2] (setting [9]) were −0.14 and 0.16, respectively. The compound further returned a Cholesterol-free in experiment [1] (setting [11]) of 1.112. This compound also returned a Complete in experiment [1] (setting [8]) of 0.9668. Further, the “Cholesterol-free media + simvastatin (0.04 μM)” value in experiment [2] (setting [7]) came out at 1.082. Moreover, the “Complete Media” value in experiment [2] (setting [8]) is recorded as 1.238.
`C[C@@H]1O[C@@H](OC[C@H]2O[C@@H](Oc3c(-c4ccc(OCCO)c(OCCO)c4)oc4cc(OCCO)cc(O)c4c3=O)[C@H](O)[C@@H](O)[C@@H]2O)[C@H](O)[C@H](O)[C@H]1O` [Troxerutin]: the Difference in experiment [1] (setting [10]) is listed as −0.13; in experiment [2] (setting [9]), 0.10. In experiment [1] (setting [11]), this compound showed a Cholesterol-free of 1.15. This compound also had a Complete in experiment [1] (setting [8]) of 1.021. Besides, the “Cholesterol-free media + simvastatin (0.04 μM)” value in experiment [2] (setting [12]) came to 0.8482. Moreover, the “Complete Media” value in experiment [2] (setting [13]) is on record as 0.9455.
On to `CC(=O)O[C@@]12CO[C@@H]1C[C@H](O)[C@@]1(C)C(=O)[C@H](O)C3=C(C)[C@@H](OC(=O)[C@H](O)[C@@H](NC(=O)OC(C)(C)C)c4ccccc4)C[C@@](O)([C@@H](OC(=O)c4ccccc4)[C@H]21)C3(C)C` [Docetaxel (Trihydrate)], for which the Difference in experiment [1] (Complete minus Cholesterol-free, >0 enhanced anti-cancer activity, about 0 neutral, <0 antagonist) was −0.05; in experiment [2] (setting [6]) it was −0.09. Moreover, in experiment [1] (NCI-H292 cells, cholesterol-free media without statin, FDA drug library screen), the Cholesterol-free was determined as 0.2507. This compound returned a Complete in experiment [1] (NCI-H292 cells, complete media, FDA drug library screen) of 0.2029. In addition, the “Cholesterol-free media + simvastatin (0.04 μM)” value in experiment [2] (setting [7]) was 0.3708. Also, the “Complete Media” value in experiment [2] (setting [8]) is listed as 0.2794.
As for `CC(=O)O[C@]1(C(C)=O)CC[C@H]2[C@@H]3C=C(Cl)C4=CC(=O)[C@@H]5C[C@@H]5[C@]4(C)[C@H]3CC[C@@]21C` [Cyproterone acetate], the values for the Difference in experiment [1] (setting [3]) and in experiment [2] (setting [9]) were −1.74 and 0.07, respectively. This compound also displayed a Cholesterol-free in experiment [1] (setting [4]) of 2.754. The Complete in experiment [1] (setting [5]) came to 1.015. For the same compound, in experiment [2] (setting [12]), the “Cholesterol-free media + simvastatin (0.04 μM)” value turned out to be 1.003. In addition, the “Complete Media” value in experiment [2] (setting [13]) is on record as 1.068.
In experiment [1], Guanethidine (sulfate) had a Cholesterol-free of 1.619, a Complete of 1.336 and a Difference of −0.28. Moreover, in experiment [2], the “Cholesterol-free media + simvastatin (0.04 μM)” value came to 1.914, the “Complete Media” value is recorded as 1.674 and the Difference was −0.24.
Turning to `CCN(c1cc(-c2ccc(CN3CCOCC3)cc2)cc(C(=O)NCc2c(C)cc(C)[nH]c2=O)c1C)C1CCOCC1` [Tazemetostat (hydrobromide)], the figures for the Difference in experiment [1] (setting [3]) and in experiment [2] (setting [9]) were −0.47 and 0.59, respectively. In experiment [1] (setting [4]), the Cholesterol-free worked out at 1.683. This compound gave a Complete in experiment [1] (setting [5]) of 1.209. For the same compound, the “Cholesterol-free media + simvastatin (0.04 μM)” value in experiment [2] (setting [7]) is listed as 0.8785. The “Complete Media” value in experiment [2] (setting [8]) turned out to be 1.469.
